This note sets out measurements from patent US20260001928A1 (CORTERIA PHARMACEUTICALS, priority 2022, published 2026).

*1 amine or outer side, *2 acyl side, *3 side chain or, on linkers, in order; H or OH if unused. Where a SMILES comes first, the peptide text is derived from it. Side-chain parts run from the residue outwards. [ ]: non-standard residue; d: D form. The star is where a group is joined. C18 diacid = O=C(O)CCCCCCCCCCCCCCCCC(=O)*; γGlu = O=C(O)[C@H](CCC(=O)[*:2])N[*:1]; NMeI = CC[C@H](C)[C@H](NC)C(=O)O; Ac6c = NC1(C(=O)O)CCCCC1; Ac5c = NC1(C(=O)O)CCCC1; Abu = CC[C@H](N)C(=O)O; Aib = CC(C)(N)C(=O)O

The target in one assay is T1, CFR1R receptor (Homo sapiens, UniProt P34998).
T1 construct: host or cells: CHO-K1 (clone 2)
T1 sequence (P34998 24-415): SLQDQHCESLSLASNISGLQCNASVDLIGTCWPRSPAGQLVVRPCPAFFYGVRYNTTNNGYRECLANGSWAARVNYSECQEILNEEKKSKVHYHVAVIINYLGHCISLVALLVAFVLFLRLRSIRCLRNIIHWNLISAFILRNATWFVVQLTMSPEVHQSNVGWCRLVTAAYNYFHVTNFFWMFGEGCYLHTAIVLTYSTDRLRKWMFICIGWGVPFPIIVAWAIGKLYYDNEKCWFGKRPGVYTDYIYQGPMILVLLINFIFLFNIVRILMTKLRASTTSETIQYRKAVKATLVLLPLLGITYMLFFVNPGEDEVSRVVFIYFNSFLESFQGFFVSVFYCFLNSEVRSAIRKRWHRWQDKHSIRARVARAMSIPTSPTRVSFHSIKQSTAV
Nature of the assay: Activity at anti-target CFR1R receptor, cAMP assay in CRF1R-overexpression CHO-K1 cells. In kind it is cell-based. The conditions noted are these: 100% = Sauvagine at 100 nM; for EC50: cAMP. In a few lines:
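Grow clone 2 to near confluence at 37° C. under 5% CO2 in F12 (Hams) with 10% FBS and G418, harvest, and freeze in 10% DMSO. Thaw and plate at 4000 cells/well. Then proceed per the TeloHAEC method, normalising to Sauvagine 100 nM as maximum.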
Background: Changes in cAMP serve as a functional read-out for many G protein-coupled receptors.

Another assay addresses T2, human CRF2a receptor (Homo sapiens, UniProt Q13324).
T2 construct: expressed in transfected cells; host or cells: TeloHEAC cells
T2 sequence (Q13324 1-411): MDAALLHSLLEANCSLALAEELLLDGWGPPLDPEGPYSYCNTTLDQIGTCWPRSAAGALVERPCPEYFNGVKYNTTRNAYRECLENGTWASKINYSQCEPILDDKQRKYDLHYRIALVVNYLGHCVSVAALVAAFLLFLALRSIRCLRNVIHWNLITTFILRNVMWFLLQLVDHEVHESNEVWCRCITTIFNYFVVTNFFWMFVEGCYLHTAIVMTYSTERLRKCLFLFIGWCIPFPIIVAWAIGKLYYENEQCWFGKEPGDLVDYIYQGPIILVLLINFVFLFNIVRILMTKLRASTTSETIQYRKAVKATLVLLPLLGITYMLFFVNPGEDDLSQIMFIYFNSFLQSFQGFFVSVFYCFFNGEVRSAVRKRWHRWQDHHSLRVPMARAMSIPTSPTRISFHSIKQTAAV
Kind of assay: Activity at human CRF2a receptor, cAMP functional assay in TeloHEAC cells. In kind it is cell-based. To be noted: TeloHEAC cells stably expressing human CRF2a receptor, relative to urocortin 2 (100 nM = 100%). In a few lines:
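TeloHEAC cells stably expressing human CRF2a (10000 cells/well) were treated with 16-point 1:2 compound dilutions in HBSS/20 mM HEPES with IBMX for 30 min at 37° C. cAMP was read by HTRF (665/620 nm ratio). EC50 was the concentration giving 50% activation, with 100 nM urocortin 2 set as 100%.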

Usually EC50 stands for the midpoint of the concentration-response curve. A low value points to a more potent agent. As for `CC[C@H](C)[C@H](NC(C)=O)C(=O)N[C@H](C(=O)N[C@@H](CC(C)C)C(=O)N[C@@H](CO)C(=O)N[C@@H](CC(C)C)C(=O)N[C@@H](CC(=O)O)C(=O)N[C@@H](C(=O)N1CCC[C@H]1C(=O)N[C@H](C(=O)N[C@@H](CCCCN)C(=O)N[C@@H](CC(C)C)C(=O)N[C@@H](CCCCNC(=O)CC[C@H](NC(=O)CCCCCCCCCCCCCCCCC(=O)O)C(=O)O)C(=O)N[C@@H](CCCCN)C(=O)N[C@H](C(=O)N[C@@H](CC(C)C)C(=O)N[C@@H](CC(C)C)C(=O)N[C@@H](CCC(=O)O)C(=O)N[C@@H](CCC(N)=O)C(=O)N[C@@H](CCC(=O)O)C(=O)N[C@@H](CCCCN)C(=O)N[C@@H](CCC(N)=O)C(=O)N[C@@H](CCCCN)C(=O)N[C@@H](CCCCN)C(=O)N[C@@H](CCC(N)=O)C(=O)N[C@@H](CCCNC(=N)N)C(=O)N[C@@H](CCC(=O)O)C(=O)N[C@@H](CCC(N)=O)C(=O)N[C@@H](C)C(=O)N[C@@H](CCC(=O)O)C(=O)N[C@H](C(=O)N[C@@H](CC(N)=O)C(=O)NC1(C(=O)N[C@@H](CCC(N)=O)C(=O)N[C@H](C(=O)N[C@@H](CC(C)C)C(=O)N[C@@H](C)C(=O)N[C@@H](CCC(N)=O)C(=O)N[C@H](C(N)=O)C(C)C)[C@@H](C)CC)CCCCC1)[C@@H](C)O)[C@@H](C)CC)[C@@H](C)CC)C(C)C)C(C)C` [compound 134] (Ac-IVLSLD[dV]PIKLK([γGlu-C18 diacid])KILLEQEKQKKQREQAETN[Ac6c]QILAQV-NH2), the “Emax (% I)” value on CFR1R receptor stood at 10 % I. Moreover, the EC50 is above 250 nM at CFR1R receptor and 0.5 nM at human CRF2a receptor.
The corresponding values for `CC[C@H](C)[C@H](NC(C)=O)C(=O)N[C@H](C(=O)N[C@@H](CC(C)C)C(=O)N[C@@H](CO)C(=O)N[C@@H](CC(C)C)C(=O)N[C@@H](CC(=O)O)C(=O)N[C@@H](C(=O)N1CCC[C@H]1C(=O)N[C@H](C(=O)N[C@@H](CCCCN)C(=O)N[C@@H](CC(C)C)C(=O)N[C@@H](CCCCNC(=O)CC[C@H](NC(=O)CCCCCCCCCCCCCCCCC(=O)O)C(=O)O)C(=O)N[C@@H](CCCCN)C(=O)N[C@H](C(=O)N[C@@H](CC(C)C)C(=O)N[C@@H](CC(C)C)C(=O)N[C@@H](CCC(=O)O)C(=O)N[C@@H](CCC(N)=O)C(=O)N[C@@H](CCC(=O)O)C(=O)N[C@@H](CCCCN)C(=O)N[C@@H](CCC(N)=O)C(=O)N[C@@H](CCCCN)C(=O)N[C@@H](CCCCN)C(=O)N[C@@H](CCC(N)=O)C(=O)N[C@@H](CCCNC(=N)N)C(=O)N[C@@H](CCC(=O)O)C(=O)N[C@@H](CCC(N)=O)C(=O)N[C@@H](C)C(=O)N[C@@H](CCC(=O)O)C(=O)N[C@H](C(=O)N[C@@H](CC(N)=O)C(=O)NC1(C(=O)N[C@@H](CCC(N)=O)C(=O)N[C@H](C(=O)N[C@@H](CC(C)C)C(=O)N[C@@H](C)C(=O)N[C@@H](CCC(N)=O)C(=O)N[C@H](C(N)=O)C(C)C)[C@@H](C)CC)CCCC1)[C@@H](C)O)[C@@H](C)CC)[C@@H](C)CC)C(C)C)C(C)C` [compound 135] (Ac-IVLSLD[dV]PIKLK([γGlu-C18 diacid])KILLEQEKQKKQREQAETN[Ac5c]QILAQV-NH2) are 15 % I, above 250 nM and 0.19 nM.
The corresponding values for `CC[C@H](C)[C@H](NC)C(=O)N[C@H](C(=O)N[C@@H](CC(C)C)C(=O)N[C@@H](CO)C(=O)N[C@@H](CC(C)C)C(=O)N[C@@H](CC(=O)O)C(=O)N[C@@H](C(=O)N1CCC[C@H]1C(=O)N[C@H](C(=O)N[C@@H](CCCCN)C(=O)N[C@@H](CC(C)C)C(=O)N[C@@H](CCCCNC(=O)CC[C@H](NC(=O)CCCCCCCCCCCCCCCCC(=O)O)C(=O)O)C(=O)N[C@@H](CCCCN)C(=O)N[C@H](C(=O)N[C@@H](CC(C)C)C(=O)N[C@@H](CC(C)C)C(=O)N[C@@H](CCC(=O)O)C(=O)N[C@@H](CCC(N)=O)C(=O)N[C@@H](CCC(=O)O)C(=O)N[C@@H](CCCCN)C(=O)N[C@@H](CCC(N)=O)C(=O)N[C@@H](CCCCN)C(=O)N[C@@H](CCCCN)C(=O)N[C@@H](CCC(N)=O)C(=O)N[C@@H](CCCNC(=N)N)C(=O)N[C@@H](CCC(=O)O)C(=O)N[C@@H](CCC(N)=O)C(=O)N[C@@H](C)C(=O)N[C@@H](CCC(=O)O)C(=O)N[C@H](C(=O)N[C@@H](CC(N)=O)C(=O)NC(C)(C)C(=O)N[C@@H](CCC(N)=O)C(=O)N[C@H](C(=O)N[C@@H](CC(C)C)C(=O)N[C@@H](C)C(=O)N[C@@H](CCC(N)=O)C(=O)N[C@H](C(N)=O)C(C)C)[C@@H](C)CC)[C@@H](C)O)[C@@H](C)CC)[C@@H](C)CC)C(C)C)C(C)C` [compound 137] (H-[NMeI]VLSLD[dV]PIKLK([γGlu-C18 diacid])KILLEQEKQKKQREQAETN[Aib]QILAQV-NH2) are 9 % I, above 250 nM and 0.07 nM.
The corresponding values for `CC[C@H](C)[C@H](NC)C(=O)N[C@H](C(=O)N[C@@H](CC(C)C)C(=O)N[C@@H](CO)C(=O)N[C@@H](CC(C)C)C(=O)N[C@@H](CC(=O)O)C(=O)N[C@@H](C(=O)N1CCC[C@H]1C(=O)N[C@H](C(=O)N[C@@H](CCCCN)C(=O)N[C@@H](CC(C)C)C(=O)N[C@@H](CCCCNC(=O)CC[C@H](NC(=O)CCCCCCCCCCCCCCCCC(=O)O)C(=O)O)C(=O)N[C@@H](CCCCN)C(=O)N[C@H](C(=O)N[C@@H](CC(C)C)C(=O)N[C@@H](CC(C)C)C(=O)N[C@@H](CCC(=O)O)C(=O)N[C@@H](CCC(N)=O)C(=O)N[C@@H](CCC(=O)O)C(=O)N[C@@H](CCCCN)C(=O)N[C@@H](CCC(N)=O)C(=O)N[C@@H](CCCCN)C(=O)N[C@@H](CCCCN)C(=O)N[C@@H](CCC(N)=O)C(=O)N[C@@H](CCCNC(=N)N)C(=O)N[C@@H](CCC(=O)O)C(=O)N[C@@H](CCC(N)=O)C(=O)N[C@@H](C)C(=O)N[C@@H](CCC(=O)O)C(=O)N[C@H](C(=O)N[C@@H](CC(N)=O)C(=O)N[C@@H](C)C(=O)N[C@@H](CCC(N)=O)C(=O)N[C@H](C(=O)N[C@@H](CC(C)C)C(=O)N[C@@H](C)C(=O)N[C@@H](CCC(N)=O)C(=O)N[C@H](C(N)=O)C(C)C)[C@@H](C)CC)[C@@H](C)O)[C@@H](C)CC)[C@@H](C)CC)C(C)C)C(C)C` [compound 138] (H-[NMeI]VLSLD[dV]PIKLK([γGlu-C18 diacid])KILLEQEKQKKQREQAETNAQILAQV-NH2) are 10 % I, above 250 nM and 0.05 nM.
As for `CC[C@H](NC(=O)[C@H](CC(N)=O)NC(=O)[C@@H](NC(=O)[C@H](CCC(=O)O)NC(=O)[C@H](C)NC(=O)[C@H](CCC(N)=O)NC(=O)[C@H](CCC(=O)O)NC(=O)[C@H](CCCNC(=N)N)NC(=O)[C@H](CCC(N)=O)NC(=O)[C@H](CCCCN)NC(=O)[C@H](CCCCN)NC(=O)[C@H](CCC(N)=O)NC(=O)[C@H](CCCCN)NC(=O)[C@H](CCC(=O)O)NC(=O)[C@H](CCC(N)=O)NC(=O)[C@H](CCC(=O)O)NC(=O)[C@H](CC(C)C)NC(=O)[C@H](CC(C)C)NC(=O)[C@@H](NC(=O)[C@H](CCCCN)NC(=O)[C@H](CCCCNC(=O)CC[C@H](NC(=O)CCCCCCCCCCCCCCCCC(=O)O)C(=O)O)NC(=O)[C@H](CC(C)C)NC(=O)[C@H](CCCCN)NC(=O)[C@@H](NC(=O)[C@@H]1CCCN1C(=O)[C@H](NC(=O)[C@H](CC(=O)O)NC(=O)[C@H](CC(C)C)NC(=O)[C@H](CO)NC(=O)[C@H](CC(C)C)NC(=O)[C@@H](NC(=O)[C@@H](NC)[C@@H](C)CC)C(C)C)C(C)C)[C@@H](C)CC)[C@@H](C)CC)[C@@H](C)O)C(=O)N[C@@H](CCC(N)=O)C(=O)N[C@H](C(=O)N[C@@H](CC(C)C)C(=O)N[C@@H](C)C(=O)N[C@@H](CCC(N)=O)C(=O)N[C@H](C(N)=O)C(C)C)[C@@H](C)CC` [compound 139] (H-[NMeI]VLSLD[dV]PIKLK([γGlu-C18 diacid])KILLEQEKQKKQREQAETN[Abu]QILAQV-NH2), the “Emax (% I)” value on CFR1R receptor turned out to be 13 % I. For the same compound, the EC50 is above 250 nM on CFR1R receptor and 0.05 nM on human CRF2a receptor.
